Reference: publication PMC4154495 (Molecular cancer therapeutics, 2014)

Target: T1, ETV1 (ETS variant 1) (Homo sapiens, UniProt P50549)
T1 sequence (P50549 1-477): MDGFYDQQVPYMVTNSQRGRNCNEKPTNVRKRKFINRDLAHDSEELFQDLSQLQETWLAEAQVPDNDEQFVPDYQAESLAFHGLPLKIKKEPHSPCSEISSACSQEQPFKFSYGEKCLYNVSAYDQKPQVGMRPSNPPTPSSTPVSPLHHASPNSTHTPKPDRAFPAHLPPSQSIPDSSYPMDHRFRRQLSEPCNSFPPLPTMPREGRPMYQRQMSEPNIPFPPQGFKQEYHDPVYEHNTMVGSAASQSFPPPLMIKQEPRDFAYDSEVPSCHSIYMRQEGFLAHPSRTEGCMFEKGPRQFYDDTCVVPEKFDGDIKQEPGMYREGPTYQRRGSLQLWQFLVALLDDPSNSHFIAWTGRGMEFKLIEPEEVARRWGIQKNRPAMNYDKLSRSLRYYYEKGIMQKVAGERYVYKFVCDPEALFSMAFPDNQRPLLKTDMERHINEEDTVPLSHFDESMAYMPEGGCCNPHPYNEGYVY
Assay: SPR
Type: binding

Kd: 17.1 µM
Structure (SMILES): COc1ccc(Nc2nc(N)nc(CN3CCCCC3)n2)cc1 [compound 1, BRD32048]
